Molecules are shown by their SMILES. Numbered stars: 1 amine (or outer) side, 2 acyl side, 3 side chain; on linkers, the order of the positions; unused ones are H or OH. Square brackets hold non-standard residues; d marks the D form. Peptide text beside a SMILES is read from it. Cha = N[C@@H](CC1CCCCC1)C(=O)O; Suc = O=C(CCC(=O)[*:2])[*:1]; Ava = NCCCCC(=O)O

This assay relates to platelet. The assay is described as follows: Dog antiplatelet activity. As to conditions: read-out: Dog Antiplatelet IC₅₀. The assay is classed as cell-based.
Consider `CC[C@H](C)[C@H](NC(=O)[C@@H]1CCCN1C(=O)[C@H](CCC(=O)O)NC(=O)[C@H](Cc1c[nH]c2ccccc12)NC(=O)[C@H](CC(=O)O)NC(=O)CNC(=O)CCCCNC(=N)N)C(=O)N1CCC[C@H]1C(=O)N[C@@H](CCC(=O)O)C(=O)N[C@@H](CCC(=O)O)C(=O)N[C@@H](C)C(=O)N[C@@H](CC1CCCCC1)C(=O)N[C@H](CCC(=O)O)C(=O)O` [Example 1], for which the IC50 came to 6 µM.

Consider `CC[C@H](C)[C@H](NC(=O)[C@H](CCC(=O)O)NC(=O)[C@H](CCC(=O)O)NC(=O)[C@H](Cc1c[nH]c2ccccc12)NC(=O)[C@H](CC(=O)O)NC(=O)CNC(=O)CCCCN)C(=O)N1CCC[C@H]1C(=O)N[C@@H](CCC(=O)O)C(=O)N[C@@H](CCC(=O)O)C(=O)N[C@@H](C)C(=O)N[C@@H](CC1CCCCC1)C(=O)N[C@H](CCC(=O)O)C(=O)O` [Example 2] (H-[Ava]GDWEEIPEEA[Cha][dE]-OH), for which the IC50 amounted to 250 µM.

Take `CC[C@H](C)[C@H](NC(=O)[C@@H]1CCCN1C(=O)[C@H](CCC(=O)O)NC(=O)[C@H](Cc1ccc(OC)cc1)NC(=O)[C@H](CC(=O)O)NC(=O)CNC(=O)CCCCN)C(=O)N1CCC[C@H]1C(=O)N[C@@H](CCC(=O)O)C(=O)N[C@@H](CCC(=O)O)C(=O)N[C@@H](C)C(=O)N[C@@H](CC1CCCCC1)C(=O)N[C@H](CCC(=O)O)C(=O)O` [Example 3, 5AP-Gly-Asp-Tyr(OCH₃)-Glu-Pro-Ile-Pro-Glu-Glu-Ala-Cha-glu-OH]: the IC50 turned out to be 280 µM.

`CC[C@H](C)[C@H](NC(=O)[C@@H]1CCCN1C(=O)[C@H](CCC(=O)O)NC(=O)[C@H](Cc1ccc(O)cc1)NC(=O)CCC(=O)O)C(=O)N1CCC[C@H]1C(=O)N[C@@H](CCCNC(=N)N)C(=O)NCC(=O)N[C@@H](CC(=O)O)C(=O)N[C@@H](Cc1ccccc1)C(=O)N[C@H](CCC(=O)O)C(=O)O` [Example 4] (Suc-YEPIPRGDF[dE]-OH): the IC50 came out at 42 µM.

On to `CC[C@H](C)[C@H](NC(=O)[C@@H]1CCCN1C(=O)[C@H](CCC(=O)O)NC(=O)[C@H](Cc1ccc(OC)cc1)NC(=O)[C@H](CC(=O)O)NC(=O)CNC(=O)CCCCNC(=N)N)C(=O)N1CCC[C@H]1C(=O)N[C@@H](CCC(=O)O)C(=O)N[C@@H](CCC(=O)O)C(=O)N[C@@H](C)C(=O)N[C@@H](CC1CCCCC1)C(=O)N[C@H](CCC(=O)O)C(=O)O` [Example 5, 5GP-Gly-Asp-Tyr(OCH₃)-Glu-Pro-Ile-Pro-Glu-Glu-Ala-Cha-glu-OH], for which the IC50 is 10 µM.

These data come from patent publication EP0468448B1, “Analogs of hirudin having antiplatelet activity” (MERRELL PHARMACEUTICALS INC., priority 1990, dated 1992).
